One may read the EC50 as the concentration at which the effect is half-maximal. Read a low EC50 as greater potency. One may read the IC50 as the concentration that inhibits the measured activity by half. A higher IC50 goes with weaker potency in that assay.

These results are taken from publication PMC7182439 (Cell, 2019).

Assay [1] addresses T1, SpCas9 (Streptococcus pyogenes, UniProt Q99ZW2). Briefly: eGFP-disruption assay. The format is cell-based.
Assay [2] has as its target T1, SpCas9. Briefly: in vitro DNA cleavage assay. The assay is classed as biochemical.

Structures are written as SMILES.

T1 sequence (Q99ZW2 whole entry): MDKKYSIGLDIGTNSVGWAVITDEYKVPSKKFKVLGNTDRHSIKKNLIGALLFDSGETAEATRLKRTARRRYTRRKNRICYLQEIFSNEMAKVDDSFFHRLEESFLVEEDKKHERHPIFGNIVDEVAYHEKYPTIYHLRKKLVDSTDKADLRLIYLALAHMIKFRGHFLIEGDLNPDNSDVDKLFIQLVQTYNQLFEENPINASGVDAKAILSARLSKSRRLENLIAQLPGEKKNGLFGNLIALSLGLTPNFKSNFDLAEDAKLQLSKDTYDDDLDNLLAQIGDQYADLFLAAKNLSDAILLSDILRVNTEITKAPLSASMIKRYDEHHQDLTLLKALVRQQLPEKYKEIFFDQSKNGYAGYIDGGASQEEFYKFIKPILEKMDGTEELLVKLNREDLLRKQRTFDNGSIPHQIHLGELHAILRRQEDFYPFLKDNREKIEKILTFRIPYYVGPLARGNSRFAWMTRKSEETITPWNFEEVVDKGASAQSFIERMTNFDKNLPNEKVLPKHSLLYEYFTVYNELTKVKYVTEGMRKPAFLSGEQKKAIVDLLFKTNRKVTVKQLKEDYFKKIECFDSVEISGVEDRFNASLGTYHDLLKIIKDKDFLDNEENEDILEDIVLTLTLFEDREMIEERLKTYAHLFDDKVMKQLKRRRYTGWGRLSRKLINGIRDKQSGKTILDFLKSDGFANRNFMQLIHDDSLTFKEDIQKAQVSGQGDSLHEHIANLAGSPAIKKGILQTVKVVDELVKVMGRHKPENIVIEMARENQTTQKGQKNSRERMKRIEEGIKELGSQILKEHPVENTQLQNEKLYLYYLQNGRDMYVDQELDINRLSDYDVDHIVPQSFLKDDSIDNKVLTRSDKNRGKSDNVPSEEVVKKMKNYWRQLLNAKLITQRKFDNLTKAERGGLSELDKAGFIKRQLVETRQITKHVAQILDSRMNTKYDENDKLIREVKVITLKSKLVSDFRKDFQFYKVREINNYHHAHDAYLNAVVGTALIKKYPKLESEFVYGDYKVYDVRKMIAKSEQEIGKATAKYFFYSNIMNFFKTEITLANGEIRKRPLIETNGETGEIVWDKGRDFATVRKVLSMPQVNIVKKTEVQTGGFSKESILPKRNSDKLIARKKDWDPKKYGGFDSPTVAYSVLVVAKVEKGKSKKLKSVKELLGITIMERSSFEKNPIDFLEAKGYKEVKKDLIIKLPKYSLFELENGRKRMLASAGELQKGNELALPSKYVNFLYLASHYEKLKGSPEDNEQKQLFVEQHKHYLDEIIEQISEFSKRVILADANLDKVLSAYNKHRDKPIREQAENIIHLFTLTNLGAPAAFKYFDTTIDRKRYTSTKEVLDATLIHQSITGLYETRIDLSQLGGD

On SpCas9 [1], `COc1cccc(-c2ccc3c(c2)[C@H]2[C@H](CCN2C(=O)Cc2ccncc2)[C@H](CO)N3C)c1` [BRD3433] yielded an EC50 of 9.3 µM.

On SpCas9 [2], `Cc1ccc(S(=O)(=O)N2CC[C@@H]3[C@H](CO)Nc4ccc(-c5ccccc5F)cc4[C@@H]32)cc1` [BRD0539] gave a half-inhibitory concentration (IC50) of 22 µM.
